Assay results published in US8372967B2, “Compounds and methods for modulating expression of GCCR” (Isis Pharmaceuticals, Inc., priority 2006, dated 2013).
Strand notation (5' to 3'): a small letter for the sugar, then the base; units joined by * are phosphorothioate-linked, units joined directly phosphodiester-linked; [ ] holds rarer units or linkages, { } end groups; capitals alone tell only the bases. e = 2'-O-(2-methoxyethyl) (MOE); l = locked nucleic acid (LNA); [5mC] = 5-methylcytosine; d = 2'-deoxy (DNA)

Columns and labels:
rat SGLT2 mRNA [1] = experiment: Rat SGLT2 mRNA in kidney, 1-10-1 gapmers, 250 nmol/kg (Table 66); format: in vivo; details: for % change in SGLT2 expression relative to saline: 250 nmol/kg i.p. twice per week for three weeks, Sprague-Dawley rat kidney
Protocol: The effect of the above 1-10-1 gapmers (see Table 64 above) on rat SGLT2 mRNA levels. Data are taken from four experiments in which male Sprague-Dawley rats (170-200 g) were dosed twice per week for three weeks with 250 nmol/kg given by intraperitoneal injection. Rats were sacrificed 48 hours following last administration and evaluated for SGLT2 mRNA levels in kidney. Target levels were determined by RT, real-time PCR as described by other examples herein. PCR results were normalized to an internal ISIS control.

rat SGLT2 mRNA [2] = experiment: Rat SGLT2 mRNA in kidney, 1-10-1 and 1-10-2 MOE gapmers, Sprague-Dawley rats (Table 63); format: in vivo
Description: 1-10-1 and 1-10-2 MOE gapmer antisense compounds, provided in Table 62, were designed to target different regions of the mouse or rat SGLT2 RNA. All short antisense compounds in Table 62 are chimeric oligonucleotides (“gapmers”) either 12 or 13 nucleotides in length, composed of a central “gap” segment consisting of ten 2′-deoxynucleotides, which are flanked on the 5′ side by a one-nucleoside “wing” and on the 3′ side by a two or one-nucleotide “wing”. […] All cytidine residues are 5-methylcytidines.
The short antisense compounds were analyzed for their effect on rat SGLT2 mRNA levels. Data are ranges taken from three experiments in which Male Sprague-Dawley rats (170-200 g) were dosed twice per week for three weeks with 450, 150 or 50 nmol/kg of either a 1-10-1 or 1-10-2 MOE gapmer given by intraperitoneal injection. Rats were sacrificed 48 hours following last administration and evaluated for SGLT2 mRNA levels in kidney. Target levels were determined by RT, real-time PCR as described by other examples herein. PCR results were normalized to an internal ISIS control.

mouse SGLT2 mRNA [3] = experiment: Mouse SGLT2 mRNA in kidney, additional 1-10-1 and 2-8-2 MOE gapmers (Table 68); format: in vivo; details: Balb/c mouse kidney
Protocol: 1-10-1 and 2-8-2 MOE gapmer short antisense compounds were designed to target different regions of the mouse SGLT2 RNA but have complementarity across species. […] All cytidine residues are 5-methylcytidines.
The short antisense compounds were analyzed for their effect on mouse SGLT2 mRNA levels in vivo. Data was taken from three experiments in which male 6-week old Balb/c mice were dosed twice per week for three weeks with 0.5, 0.1, or 0.02 umol/kg of either a 1-10-1 or 2-8-2 MOE gapmer given by intraperitoneal injection. Mice were sacrificed 48 hours following last administration and evaluated for SGLT2 levels in kidney. Target levels were determined by RT, real-time PCR as described by other examples herein. PCR results were normalized to an internal ISIS control.

mouse SGLT2 mRNA [4] = experiment: Mouse SGLT2 mRNA in kidney, 1-10-1 MOE gapmers, Balb/c mice (Table 65); format: in vivo
Protocol: The short antisense compounds were analyzed for their effect on mouse SGLT2 mRNA levels. Data was taken from three experiments in which Male 6-week old Balb/c mice were dosed twice per week for two weeks with 450, 150, or 50 nmol/kg of one of the above 1-10-1 MOE gapmers given by intraperitoneal injection. Mice were sacrificed 48 hours following last administration and evaluated for SGLT2 mRNA levels in kidney. Target levels were determined by RT, real-time PCR as described by other examples herein. PCR results were normalized to an internal ISIS control.

[5] = HbA1c status in ZDF rat (Table 72); format: in vivo; details: ZDF rat, 400 nM/kg i.p. once a week
Protocol: ISIS 388625, 388626 and control oligo ISIS 388628 were analyzed for their effect on ZDF rat plasma glucose levels and HbA1c. The leptin receptor deficient Zucker diabetic fatty (ZDF) rat is a useful model for the investigation of type 2 diabetes. Diabetes develops spontaneously in these male rats at ages 8-10 weeks, and is associated with hyperphagia, polyuria, polydipsia, and impaired weight gain, symptoms which parallel the clinical symptoms of diabetes (Phillips M S, et al., 1996, Nat Genet. 13, 18-19). Six week old ZDF rats were injected intraperitoneally with short antisense compound at a dose of 400 nM/kg once a week for twelve weeks. Data are illustrated in Tables 71 and 72.

PTEN mRNA = PTEN mRNA levels in liver, kidney and fat, Balb/c mice, single i.p. 8 μmol/kg (Table 48); format: in vivo, mouse; details: 72 h, saline = 100
Description: Each dose group consisted of four animals. Shown in Table 46 are the sequences and motifs of the PTEN antisense compounds used in this study. Bolded residues indicate 2′-O-methoxyethyl moieties (2′-MOE) and italicized residues indicate Methyleneoxy BNA nucleotides. Each antisense compound comprises phosphorothioate linkages throughout. In addition, the cytosine residues in the gap of ISIS 384073 and in the wings of ISIS 392056, ISIS 392057, ISIS 392061 and ISIS 392063 are replaced with 5-methylcytosines. Antisense compounds target published PTEN nucleic acids, including Genbank Accession No. U92437.1 (SEQ ID
Mice were sacrificed 72 hours following injection to determine serum transaminase levels (Table 47); liver and spleen weights (Table 47); and PTEN mRNA levels in liver, kidney and fat (Table 48), according to procedures described herein and well know to one of ordinary skill in the art.

mouse SGLT2 mRNA [6] = experiment: Mouse SGLT2 mRNA in kidney, MOE versus Methyleneoxy BNA gapmers (Table 69); format: in vivo; details: Balb/c mouse kidney
Protocol: The effect of ISIS 3796921-10-1 MOE gapmer and ISIS 3886252-8-2 MOE gapmer are compared with the effect of ISIS 3921701-10-1 Methyleneoxy BNA Gapmer and ISIS 3921732-8-2 Methyleneoxy BNA Gapmer (see Table 69) on mouse SGLT2 mRNA levels in vivo. Data are taken from three experiments in which male 6-week old Balb/c mice were dosed twice per week for three weeks with 5, 25 and 125 nmol/kg of either the ISIS 3796921-10-1 MOE gapmer or the ISIS 3886252-8-2 MOE gapmer given by intraperitoneal injection. Mice were sacrificed 48 hours following last administration and evaluated for SGLT2 mRNA levels in kidney. Target levels were determined by RT, real-time PCR as described by other examples herein. PCR results were normalized to an internal ISIS control. The data are expressed as percent change (“+” indicates an increase, “−” indicates a decrease) relative to saline treated animals and are illustrated in Table 69.

With “ISIS 381408: 1-10-1 MOE gapmer targeting SGLT2 mRNA (TACCGAACACCT; sugars from the 5' end e1 d10 e1, backbone and methylation of C not given here)” the “% change in SGLT2 expression relative to saline” value (rat SGLT2 mRNA [1]) was −5% and the “expression of SGLT2 in in vivo rat studies” value (rat SGLT2 mRNA [1]; 250 nmol/kg twice per week for three weeks) was “Activity of ISIS 381408 has been shown”.
With “ISIS 379699: GGCATGAGCTTC 1-10-1 MOE, SGLT2 (eG*dG*d[5mC]*dA*dT*dG*dA*dG*d[5mC]*dT*dT*e[5mC])” the “% change in SGLT2 expression relative to saline” value (rat SGLT2 mRNA [2]; 50 nmol/kg i.p. twice per week for three weeks) was −60%, the “% change in SGLT2 expression relative to saline” value (rat SGLT2 mRNA [2]; 150 nmol/kg i.p. twice per week for three weeks) was −75% and the “% change in SGLT2 expression relative to saline” value (rat SGLT2 mRNA [2]; 450 nmol/kg i.p. twice per week for three weeks) was −83%. For the same substance, the “% change in SGLT2 expression relative to saline” value (mouse SGLT2 mRNA [3]; 0.02 umol/kg i.p. twice per week for three weeks) was −30%, the “% change in SGLT2 expression relative to saline” value (mouse SGLT2 mRNA [3]; 0.1 umol/kg i.p. twice per week for three weeks) was −60% and the “% change in SGLT2 expression relative to saline” value (mouse SGLT2 mRNA [3]; 0.5 umol/kg i.p. twice per week for three weeks) was −75%. For the same substance, the “% change in SGLT2 expression relative to saline” value (mouse SGLT2 mRNA [4]; 50 nmol/kg i.p. twice per week for two weeks) was −42.5%, the “% change in SGLT2 expression relative to saline” value (mouse SGLT2 mRNA [4]; 150 nmol/kg i.p. twice per week for two weeks) was −62.5% and the “% change in SGLT2 expression relative to saline” value (mouse SGLT2 mRNA [4]; 450 nmol/kg i.p. twice per week for two weeks) was −80%. For the same substance, the “% change in SGLT2 expression relative to saline” value (rat SGLT2 mRNA [1]) was −75%.
With “388625 (eT*eG*dT*dT*d[5mC]*d[5mC]*dA*dG*d[5mC]*d[5mC]*e[5mC]*eA) [compound 388625]” the “Percentage HbA1c” value ([5]; Day 40) was 6.5%, the “Percentage HbA1c” value ([5]; Day 55) was 5.8% and the “Percentage HbA1c” value ([5]; Day 68) was 4.3%.
In the case of “384073 (antisense lG*lC*lT*dA*dG*d[5mC]*d[5mC]*dT*d[5mC]*dT*dG*dG*dA*lT*lT*lT) [compound 384073]”, the “% PTEN mRNA levels in Fat” value (PTEN mRNA) is reported as 77%, the “% PTEN mRNA levels in Kidney” value (PTEN mRNA) is reported as 74% and the “% PTEN mRNA levels in Liver” value (PTEN mRNA) is reported as 24%.
With “ISIS 392170: 1-10-1 Methyleneoxy BNA Gapmer, SGLT2 (lT*dG*dT*dT*d[5mC]*d[5mC]*dA*dG*d[5mC]*d[5mC]*d[5mC]*lA)” the “SGLT2 mRNA, percent change relative to saline treated animals” value (mouse SGLT2 mRNA [6]; 5 nmol/kg i.p. twice per week for three weeks) was −23%, the “SGLT2 mRNA, percent change relative to saline treated animals” value (mouse SGLT2 mRNA [6]; 25 nmol/kg i.p. twice per week for three weeks) was −54% and the “SGLT2 mRNA, percent change relative to saline treated animals” value (mouse SGLT2 mRNA [6]; 125 nmol/kg i.p. twice per week for three weeks) was −69%.
